Reference: US8946273B2, “S-Triazolyl alpha-mercapto acetanilides as inhibitors of HIV reverse transcriptase” (priority 2011, dated 2015)
Like-named read-outs stand apart in the source and are kept apart here.

Experiments:
[1] = biological target: mutant HIV reverse transcriptases (Human immunodeficiency virus type 1, UniProt P12497, Y775L, cells depend on it); format: cell-based
[2] = biological target: mutant HIV reverse transcriptases (Human immunodeficiency virus type 1, UniProt P12497, Y768C, cells depend on it); format: cell-based
wild type HIV-1 = experiment: microbe, parasite or virus in culture; format: cell-based, human immunodeficiency virus type 1 (HIV-1)
[3] = biological target: T1, wild-type HIV reverse transcriptase (Human immunodeficiency virus type 1 group M subtype B, UniProt P04585); experiment: Activity on wild type reverse transcriptase (Table 1 IC50 WT); format: biochemical
T1 construct: wild-type and four mutant HIV reverse transcriptases
Description: Using similar methods as described above, 2-[5-bromo-4-(4-cyclopropylnaphthalen-1-yl)-4H-[1,2,4]triazol-3-ylsulfanyl]-N-(2-methyl-4-sulfamoylphenyeacetamide and 2-[5-bromo-4-(4-ethylnaphthalen-1-yl)-4H-[1,2,4]triazol-3-ylsulfanyl]-N-(2-chloro-4-sulfamoylphenyl)-acetamide were synthesized, as were the N-4-carbamyl analog, 2-[5-bromo-4-(4-ethyl-naphthalen-1-yl)-4H-[1,2,4]triazol-3-ylsulfanyl]-N-(2-chloro-4-carbamoylphenyl)-acetamide and the N-4-carboxyl analog. Each of the compounds was tested against a panel of mutant HIV reverse transcriptases, including 20 of the 22 of the mutants that are found in about 2% or more of the patient samples that are resistant to the most widely used non-nucleoside HIV-RT inhibitor efavirenz ((4S)-6-chloro-4-(cyclopropylethynyl)-1,4-dihydro-4-(trifluoromethyl)-2H-3,1-benzoxazin-2-one). […] In most cases both criteria were met. […] […].
Compounds of the invention were tested against the wild-type and four mutant HIV reverse transcriptases. The results are listed in Table 1 as EC50 (nM) and IC50 (nM). In the Table, A represents <50 nM, B is between 50 and 100 nM, and C is >100 nM. ND is not determined.

[4] = Human immunodeficiency virus 1, Hela-JC53, read-out: EC50 WT
[5] = read-out: EC50 WT, wild-type (WT) HIV-1
[6] = read-out: IC50 WT RT, wild-type (WT) RT

Row | Compound | EC50 [1] [µM] | EC50 [2] [µM] | EC50 (wild type HIV-1; [4]) [µM] | IC50 [3] [µM] | EC50 (wild type HIV-1; [5]) [µM] | IC50 [3, 6] [µM]
1 | Cc1ccc(-n2c(C)nnc2SCC(=O)Nc2ccc(S(N)(=O)=O)cc2Cl)c2c1CCCC2 [compound 46] | < 0.05 | < 0.05 | < 0.05 | < 0.05 | – | –
2 | CCc1ccc(-n2c(Br)nnc2SCC(=O)Nc2ccc(C(=O)O)cc2C)c2ccccc12 [compound 6] | > 0.1 | < 0.05 | < 0.05 | < 0.05 | – | –
3 | COc1cccc2c(-n3c(Br)nnc3SCC(=O)Nc3ccc(C(=O)O)cc3Cl)cccc12 [compound 27] | > 0.1 | < 0.05 | < 0.05 | < 0.05 | – | –
4 | CCc1ccc(-n2c(Br)nnc2SCC(=O)Nc2ccc(C(=O)NCC(C)O)cc2Cl)c2ccccc12 (centres unmarked) [compound 128] | < 0.05 | < 0.05 | < 0.05 | < 0.05 | – | –
5 | CCc1ccc(-n2c(Br)nnc2SCC(=O)Nc2ccc(C(=O)NCCOC)cc2Cl)c2ccccc12 [compound 127] | < 0.05 | < 0.05 | < 0.05 | < 0.05 | – | –
6 | O=C(O)CCNC(=O)c1ccc(NC(=O)CSc2nnc(Br)n2-c2ccc(C3CC3)c3ccccc23)c(Cl)c1 [compound 112] | > 0.1 | > 0.1 | < 0.05 | < 0.05 | – | –
7 | CNS(=O)(=O)c1ccc(NC(=O)CSc2nnc(C(F)F)n2-c2ccc(C)c3ccccc23)c(Cl)c1 [compound 54] | 0.05 to 0.1 | < 0.05 | < 0.05 | < 0.05 | – | –
8 | O=C(CSc1nnc(Br)n1-c1ccc(C2CC2)cc1Cl)Nc1ccc(C(=O)O)cc1Cl [compound 31] | > 0.1 | < 0.05 | < 0.05 | < 0.05 | – | –
9 | CCc1ccc(-n2c(CF)nnc2SCC(=O)Nc2ccc(S(=O)(=O)NC)cc2Cl)c2ccccc12 [compound 55] | 0.05 to 0.1 | < 0.05 | < 0.05 | 0.05 to 0.1 | – | –
10 | Cc1cc(S(N)(=O)=O)ccc1NC(=O)CSc1nnc(C(F)F)n1-c1ccc(C)c2c1CCCC2 [compound 48] | 0.05 to 0.1 | < 0.05 | < 0.05 | < 0.05 | – | –
11 | CCOC(=O)CNC(=O)c1ccc(NC(=O)CSc2nnc(Br)n2-c2ccc(C3CC3)c3ccccc23)c(Cl)c1 [compound 101] | < 0.05 | < 0.05 | < 0.05 | < 0.05 | – | –
12 | CCc1ccc(-n2c(Br)nnc2SCC(=O)Nc2ccc(C(=O)NCC3CCCCC3)cc2Cl)c2ccccc12 [compound 124] | < 0.05 | < 0.05 | < 0.05 | < 0.05 | – | –
13 | CCc1ccc(-n2c(Br)nnc2SCC(=O)Nc2ccc(C(=O)NCC3CCCO3)cc2Cl)c2ccccc12 (centres unmarked) [compound 125] | < 0.05 | < 0.05 | < 0.05 | < 0.05 | – | –
14 | CCOC(=O)CN(C)C(=O)c1ccc(NC(=O)CSc2nnc(Br)n2-c2ccc(CC)c3ccccc23)c(Cl)c1 [compound 108] | < 0.05 | < 0.05 | < 0.05 | < 0.05 | – | –
15 | Cc1cc(C2CC2)c2ccccc2c1-n1c(Br)nnc1SCC(=O)Nc1ccc(C(=O)O)cc1Cl [compound 23] | < 0.05 | < 0.05 | < 0.05 | < 0.05 | – | –
16 | COc1ccc2cccc(-n3c(Br)nnc3SCC(=O)Nc3ccc(C(=O)O)cc3Cl)c2c1 [compound 13] | < 0.05 | < 0.05 | < 0.05 | < 0.05 | – | –
17 | CCCCCCNC(=O)c1ccc(NC(=O)CSc2nnc(Br)n2-c2ccc(CC)c3ccccc23)c(Cl)c1 [compound 122] | 0.05 to 0.1 | < 0.05 | < 0.05 | < 0.05 | – | –
18 | CCOC(=O)N1CCC(NC(=O)c2ccc(NC(=O)CSc3nnc(Br)n3-c3ccc(CC)c4ccccc34)c(Cl)c2)CC1 [compound 126] | < 0.05 | < 0.05 | < 0.05 | < 0.05 | – | –
19 | COc1ccc2c(C)ccc(-n3c(Br)nnc3SCC(=O)Nc3ccc(S(N)(=O)=O)cc3Br)c2c1 [compound 74] | < 0.05 | < 0.05 | < 0.05 | < 0.05 | – | –
20 | CN(CC(=O)O)C(=O)c1ccc(NC(=O)CSc2nnc(Br)n2-c2ccc(C3CC3)c3ccccc23)c(Cl)c1 [compound 111] | > 0.1 | > 0.1 | 0.05 to 0.1 | < 0.05 | – | –
21 | CCOC(=O)C(C)NS(=O)(=O)c1ccc(NC(=O)CSc2nnc(C(F)F)n2-c2ccc(C)c3c2CCCC3)c(Cl)c1 (centres unmarked) [compound 56] | > 0.1 | < 0.05 | < 0.05 | < 0.05 | – | –

Row | Compound | EC50 [1] [µM] | EC50 [2] [µM] | EC50 (wild type HIV-1; [4]) [µM] | IC50 [3] [µM] | EC50 (wild type HIV-1; [5]) [µM] | IC50 [3, 6] [µM]
22 | COc1ccc2c(C3CC3)ccc(-n3c(Br)nnc3SCC(=O)Nc3ccc(S(=O)(=O)O)cc3Cl)c2c1 [compound 19] | > 0.1 | 0.05 to 0.1 | – | – | 0.05 to 0.1 | < 0.05
23 | Cc1cc(C(=O)O)ccc1NC(=O)CSc1nnc(C(F)F)n1-c1ccc(C)c2c1CCCC2 [compound 5] | > 0.1 | > 0.1 | < 0.05 | < 0.05 | – | –
24 | CC(C)c1ccc(-n2c(SCC(=O)Nc3ccc(S(N)(=O)=O)cc3Cl)nnc2C(F)F)c2ccccc12 [compound 71] | < 0.05 | < 0.05 | < 0.05 | < 0.05 | – | –
25 | CCc1ccc(-n2c(Br)nnc2SCC(=O)Nc2ccc(C(=O)NCC(=O)O)cc2Cl)c2ccccc12 [compound 105] | 0.05 to 0.1 | < 0.05 | < 0.05 | < 0.05 | – | –
26 | CCc1ccc(-n2c(SCC(=O)Nc3ccc(C(=O)O)cc3Cl)nnc2C(F)F)c2ccccc12 [compound 4] | < 0.05 | < 0.05 | < 0.05 | < 0.05 | – | –
27 | CCc1ccc(-n2c(Br)nnc2SCC(=O)Nc2ccc(C(=O)NCC(O)CO)cc2Cl)c2ccccc12 (centres unmarked) [compound 120] | < 0.05 | < 0.05 | < 0.05 | < 0.05 | – | –
28 | NS(=O)(=O)c1ccc(NC(=O)CSc2nnc(Br)n2-c2ccc(C3CC3)cc2Cl)c(Cl)c1 [compound 75] | < 0.05 | < 0.05 | < 0.05 | < 0.05 | – | –
29 | O=C(CSc1nnc(C(F)F)n1-c1ccc(C2CC2)c2ccccc12)Nc1ccc(C(=O)O)cc1Cl [compound 14] | < 0.05 | < 0.05 | < 0.05 | < 0.05 | – | –
30 | NS(=O)(=O)c1ccc(NC(=O)CSc2nnc(C(F)F)n2-c2ccc(C3CCC3)c3ccccc23)c(Cl)c1 [compound 100] | < 0.05 | < 0.05 | – | – | < 0.05 | < 0.05
31 | NS(=O)(=O)c1ccc(NC(=O)CSc2nncn2-c2ccc(C3CC3)c3ccccc23)c(Cl)c1 [compound 66] | > 0.1 | < 0.05 | < 0.05 | < 0.05 | – | –
32 | CCc1ccc(-n2c(CF)nnc2SCC(=O)Nc2ccc(S(N)(=O)=O)cc2C)c2ccccc12 [compound 49] | > 0.1 | < 0.05 | < 0.05 | < 0.05 | – | –
33 | CCc1ccc(-n2c(Br)nnc2SCC(=O)Nc2ccc(C(=O)N3CCCCC3CO)cc2Cl)c2ccccc12 (centres unmarked) [compound 133] | < 0.05 | < 0.05 | < 0.05 | < 0.05 | – | –
34 | CCc1ccc(-n2c(Br)nnc2SCC(=O)Nc2ccc(C(=O)NCCO)cc2Cl)c2ccccc12 [compound 132] | < 0.05 | < 0.05 | < 0.05 | < 0.05 | – | –
35 | Cc1cc(C2CC2)c2ccccc2c1-n1c(Br)nnc1SCC(=O)Nc1ccc(S(N)(=O)=O)cc1Cl [compound 50] | < 0.05 | < 0.05 | < 0.05 | < 0.05 | – | –
36 | O=C(CSc1nnc(Br)n1-c1ccc(C2CC2)c2ccccc12)Nc1ccc(C(=O)N[C@@H](Cc2ccc(O)cc2)C(=O)O)cc1Cl [compound 116] | > 0.1 | > 0.1 | 0.05 to 0.1 | < 0.05 | – | –
37 | O=C(CSc1nnc(Br)n1-c1ccc(C2CC2)cc1OC(F)(F)F)Nc1ccc(S(=O)(=O)O)cc1Cl [compound 24] | > 0.1 | > 0.1 | > 0.1 | < 0.05 | – | –
38 | NS(=O)(=O)c1ccc(NC(=O)CSc2nnc(Br)n2-c2ccc(F)c3ccccc23)c(Cl)c1 [compound 61] | < 0.05 | < 0.05 | < 0.05 | < 0.05 | – | –
39 | CCc1ccc(-n2c(SCC(=O)Nc3ccc(S(N)(=O)=O)cc3Cl)nnc2C(F)F)c2c1CCCC2 [compound 47] | < 0.05 | < 0.05 | < 0.05 | < 0.05 | – | –
40 | O=C(CSc1nnc(Br)n1-c1ccc(C2CC2)c2ccccc12)Nc1ccc(C(=O)O)cc1Cl [compound 10] | < 0.05 | < 0.05 | < 0.05 | < 0.05 | – | –
41 | CCc1ccc(-n2c(Br)nnc2SCC(=O)Nc2ccc(C(=O)N3CCC(CN)CC3)cc2Cl)c2ccccc12 [compound 138] | < 0.05 | < 0.05 | < 0.05 | < 0.05 | – | –
